The values that follow come from patent US8822495B2, “Azacyclyl-substituted aryldihydroisoquinolinones, process for their preparation and their use as medicaments” (Sanofi, priority 2006, dated 2014).

The assay addresses T1, human MCH receptor (Homo sapiens, UniProt Q99705).
T1 construct: expressed in transfected cells
Briefly: functional IC50 of MCH1R antagonists: cellular calcium flux (FLIPR), called calcium immobilization assay. To be noted: calcium flux after addition of agonist (MCH), recombinant HEK293 cell line expressing the human MCH receptor. It counts as cell-based. From the text:
Influence on the MCH receptor in vitro; determination of functional IC50 values of MCH1R antagonists
Cloning of the cDNA for the human MCH receptor, preparation of a recombinant HEK293 cell line which expresses the human MCH receptor, and functional measurements with the recombinant cell line took place in analogy to the description by Audinot et al. (J. Biol. Chem. 276, 13554-13562, 2001). A difference from the reference was, however, the use of the plasmid pEAK8 from EDGE Biosystems (USA) for the construction of the expression vector. The host used for the transfection was a transformed HEK cell line named “PEAK Stable Cells” (likewise from EDGE Biosystems). Functional measurements of the cellular calcium flux after addition of agonist (MCH) in the presence of ligand of the invention took place with the aid of the FLIPR apparatus from Molecular Devices (USA), using protocols of the apparatus manufacturer. The compounds of the invention show a significant inhibition (>30%) of the signal induced by the agonist at a concentration of 100 μM, preferably at 10 μM, particularly preferably at 1 μM, very particularly preferably at 100 nM and even more particularly preferably at 10 nM.
On the technique in general: Calcium flux is commonly read through the fluorescence of an indicator in the cells.

T1 sequence (Q99705 whole entry): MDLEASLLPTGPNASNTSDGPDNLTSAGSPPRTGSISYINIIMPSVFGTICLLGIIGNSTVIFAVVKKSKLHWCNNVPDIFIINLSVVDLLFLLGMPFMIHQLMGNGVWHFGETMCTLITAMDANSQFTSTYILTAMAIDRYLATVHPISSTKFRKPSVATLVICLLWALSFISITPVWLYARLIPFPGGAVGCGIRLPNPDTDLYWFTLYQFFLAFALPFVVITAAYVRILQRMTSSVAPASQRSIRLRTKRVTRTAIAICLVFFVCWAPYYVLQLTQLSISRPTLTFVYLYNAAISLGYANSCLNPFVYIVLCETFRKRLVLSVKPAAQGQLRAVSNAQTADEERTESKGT

As for `CO[C@@H]1CN(c2ccc(-n3ccc4cc(OC[C@H]5CCCO5)ccc4c3=O)cc2F)C[C@H]1N(C)C` (relative stereo) [Example 353, 2-[4-((3R*,4R*)-3-Dimethylamino-4-methoxy-pyrrolidin-1-yl)-3-fluorophenyl]-6-[(R)-1-(tetrahydrofuran-2-yl)methoxy]-2H-isoquinolin-1-one], the IC50 was found to be 23800 nM.

For `CCCCOc1ccc2c(c1)CCN(c1ccc(N3CCC(N(C)C)C3)c(Cl)c1)C2=O` (stereo not drawn) [Example 1, 6-Butoxy-2-[3-chloro-4-(3-dimethylaminopyrrolidin-1-yl)phenyl]-3,4-dihydro-2H-isoquinolin-1-one], the IC50 stood at 990 nM. The same measure for `CCCCOc1ccc2c(c1)CCN(c1ccc(N3CC[C@@H](N(C)CCS(C)(=O)=O)C3)c(F)c1)C2=O` [Example 14, 6-Butoxy-2-(3-fluoro-4-{(R)-3-[(2-methanesulfonylethyl)methylamino]pyrrolidin-1-yl}phenyl)-3,4-dihydro-2H-isoquinolin-1-one]: 1070 nM.

On to `CC1CCN(c2ccc3c(c2)CCN(c2ccc(N4CC[C@@H](N(C)C)C4)c(F)c2)C3=O)CC1` [Example 24, 2-[4-((R)-3-Dimethylaminopyrrolidin-1-yl)-3-fluorophenyl]-6-(4-methylpiperidin-1-yl)-3,4-dihydro-2H-isoquinolin-1-one], for which the IC50 was found to be 1190 nM. `CCCCOc1ccc2c(c1)CCN(c1ccc(N3CCC(N4CCN(C(C)=O)CC4)C3)cc1)C2=O` (stereo not drawn) [Example 39, 2-{4-[3-(4-Acetylpiperazin-1-yl)pyrrolidin-1-yl]phenyl}-6-butoxy-3,4-dihydro-2H-isoquinolin-1-one]: the IC50 was determined as 230 nM. As for `CCCCOc1ccc2c(c1)CCN(c1ccc(N3CCC(NCCCN4CCCC4=O)C3)cc1)C2=O` (stereo not drawn) [Example 45], the figure is 220 nM; as for `CN[C@@H]1CCN(c2ccc(N3CCc4cc(OC5CC(C)OC5=O)ccc4C3=O)cc2F)C1` (stereo partly drawn) [Example 84], 6240 nM. As for `CC(C)C(=O)Nc1ccc2c(c1)CCN(c1ccc(N3CC[C@@H](N(C)C)C3)c(F)c1)C2=O` [Example 95], the figure is 3410 nM; as for `CN(C)[C@@H]1CCN(c2ccc(N3CCc4cc(N5C[C@H]6CCCN6C5=O)ccc4C3=O)cc2F)C1` [Example 99], 1680 nM; as for `CC(O)CCNc1ccc2c(c1)CCN(c1ccc(N3CC[C@@H](N(C)C)C3)c(F)c1)C2=O` (stereo partly drawn) [Example 106], 4210 nM. The same measure for `CC1=C(C)C(=O)N(c2ccc3c(c2)CCN(c2ccc(N4CC[C@@H](N(C)C)C4)c(F)c2)C3=O)C1` [Example 112]: 7540 nM; for `C[C@@H](O)C#Cc1ccc2c(=O)n(-c3ccc(N4CC[C@@H](N5CCCC5)C4)c(F)c3)ccc2c1` [Example 136]: 100 nM; for `O=c1c2ccc(OCC(O)C(F)(F)F)cc2ccn1-c1ccc(N2CC[C@@H](N3CCCC3)C2)c(F)c1` (stereo partly drawn) [Example 154]: 180 nM. `CC1(O)CCCC1Oc1ccc2c(=O)n(-c3ccc(N4CC[C@@H](N5CCCC5)C4)c(F)c3)ccc2c1` (stereo partly drawn) [Example 168]: the IC50 was 1390 nM. On to `CC[C@H](O)COc1ccc2c(c1)CCN(c1ccc(N3CC[C@]4(CCN(CCCF)C4)C3)cc1)C2=O` [Example 176], for which the IC50 was 310 nM. The same measure for `CC1CCOC1COc1ccc2c(=O)n(-c3ccc(N4CC[C@@H](N5CCCC5)C4)c(F)c3)ccc2c1` (stereo partly drawn) [Example 202]: 500 nM; for `CC(C)(O)CN1CC[C@]2(CCN(c3ccc(N4CCc5cc(OC[C@@H]6CCCO6)ccc5C4=O)cc3)C2)C1` [Example 206]: 200 nM; for `O=c1c2ccc(OCCCF)cc2ccn1-c1ccc(N2CC[C@]3(CCN(CCCF)C3)C2)cc1` [Example 210]: 360 nM.

For the molecule `CN(C)[C@@H]1CCN(c2ccc(N3CCc4cc(OC5CCC(O)C5)ccc4C3=O)cc2F)C1` (stereo partly drawn) [Example 219], the IC50 was determined as 1460 nM. Consider `CN(C)[C@@H]1CCN(c2ccc(N3CCc4cc(OCC5(C)COC5)ccc4C3=O)cc2F)C1` [Example 224], for which the IC50 was 1420 nM. Consider `O=C1CCCN1CCOc1ccc2c(=O)n(-c3ccc(N4CC[C@@H](N5CCCC5)C4)c(F)c3)ccc2c1` [Example 246], for which the IC50 was found to be 13000 nM.

With `CC(O)CCOc1ccc2c(=O)n(-c3ccc(N4CC[C@@H](N5CCCC5)C4)c(F)c3)ccc2c1` (stereo partly drawn) [Example 251], the IC50 was 410 nM. As for `O=C1c2ccc(OC[C@@H]3CCCO3)cc2CCN1c1ccc(N2CCC(N3CC4CCC4C3)C2)c(F)c1` (stereo partly drawn) [Example 264], the IC50 was determined as 590 nM. The same measure for `CC[C@H](O)COc1ccc2c(c1)CCN(c1ccc(N3CCC4CN(C)CC43)cc1)C2=O` (stereo partly drawn) [Example 287]: 1960 nM. On to `COCCCNC1CCN(c2ccc(-n3ccc4cc(OC[C@H]5CCCO5)ccc4c3=O)cc2F)C1` (stereo partly drawn) [Example 303], for which the IC50 was 380 nM. As for `CC1(O)CCN(C2CCN(c3ccc(-n4ccc5cc(OC[C@H]6CCCO6)ccc5c4=O)cc3F)C2)CC1` (stereo partly drawn) [Example 321], the figure is 150 nM.

With `CN1C[C@H]2CCN(c3ccc(-n4ccc5cc(OC[C@@H]6CCCO6)ccc5c4=O)cc3)[C@H]2C1` [Example 324], the IC50 was 200 nM.

As for `COc1cc(-n2ccc3cc(OC[C@@H]4CCCO4)ccc3c2=O)ccc1N1CCCN(C)CC1` [Example 326], the IC50 worked out at 220 nM. The same measure for `CC(=O)N(C)C1CCCN(c2ccc(-n3ccc4cc(OC[C@@H]5CCCO5)ccc4c3=O)cc2)C1` (stereo partly drawn) [Example 327]: 3690 nM. Take `O=c1c2ccc(OC[C@H]3CCCO3)cc2ccn1-c1ccc(N2CCC3(CNCCO3)C2)c(F)c1` (stereo partly drawn) [Example 341]: the IC50 is 1600 nM. For the molecule `CN1CC2(CCN(c3ccc(-n4ccc5cc(OC[C@H]6CCCO6)ccc5c4=O)cc3F)C2)C1` [Example 354], the IC50 came to 220 nM. The same measure for `CN(C)C1(C)CCN(c2ccc(-n3ccc4cc(OC[C@H]5CCCO5)ccc4c3=O)cc2F)C1` (stereo partly drawn) [Example 356, 2-[4-(3-Dimethylamino-3-methyl-pyrrolidin-1-yl)-3-fluorophenyl]-6-[(R)-1-(tetrahydrofuran-2-yl)methoxy]-2H-isoquinolin-1-one]: 1140 nM; for `CN(C)[C@@H]1CCN(c2ccc(N3CCc4cc(C#CC(C)(C)O)sc4C3=O)cc2)C1` [Example 361]: 2560 nM.

The IC50 is the midpoint of a concentration-inhibition curve.
